# Assay results taken from patent US9284283B2, “Macrocyclic compounds for modulating IL-17” (ENSEMBLE THERAPEUTICS CORPORATION, priority 2012, dated 2016).
# Target: T1, biotinylated human IL-17 (binding to IL17R/Fc) (Homo sapiens, UniProt Q16552)
# T1 construct: purchased R&D Systems 317-ILB (IL-17, biotinylated); 177-IR (IL17R/Fc)
# T1 sequence (Q16552 20-155 limits assumed): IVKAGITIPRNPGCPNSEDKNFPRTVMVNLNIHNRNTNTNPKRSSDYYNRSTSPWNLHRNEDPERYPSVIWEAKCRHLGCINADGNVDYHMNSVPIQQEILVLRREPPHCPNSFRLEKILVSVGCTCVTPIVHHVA
# Experiment: IL-17 competition ELISA II (captured IL17R/Fc, biotinylated IL-17)
# Settings: not given
# Outline: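 Anti-human IgG-coated plates captured IL17R/Fc (10 nM), then compound (5-fold dilutions from 1 μM) and biotinylated human IL-17 (20 nM stock) were added for 30 min at room temperature in PBST. Bound IL-17 detected by streptavidin-HRP/TMB at 450 nm. IC50 from 4-parameter logistic fit between no-competitor and blank controls.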
row,SMILES,IC50 [nM]
1,C[C@H]1NC(=O)[C@@H](Cc2ccc(NC(=O)[C@H](Cc3ccccc3Cl)NC(=O)C(F)(F)c3ccccc3)cc2)NC(=O)CC2(CCCC2)CC(=O)NCCCCCNC1=O [Compound 434],< 100
2,C[C@H]1NC(=O)[C@@H](Cc2ccc(NC(=O)[C@H](Cc3ccccc3Cl)NC(=O)Cc3ccc(F)cc3)cc2)NC(=O)CC2(CCCC2)CC(=O)N[C@H](C(=O)O)CCCCNC1=O [Compound 529],< 100
3,O=C1CC2(CCCC2)CC(=O)N[C@H](Cc2ccc(NC(=O)[C@H](Cc3ccccc3Cl)NC(=O)OCc3ccccc3)cc2)C(=O)NCCOCCOCCN1 [Compound 484],< 100
4,O=C1CC2(CCCC2)CC(=O)N[C@H](Cc2ccc(NC(=O)[C@H](Cc3ccccc3Cl)NC(=O)Cc3ccc(OCCN4CCOCC4)cc3)cc2)C(=O)N[C@H](Cc2ccccc2)C(=O)NCCCCCN1 [Compound 439],< 100
5,C[C@H]1NC(=O)[C@@H](Cc2ccc(NC(=O)[C@H](Cc3ccccc3Cl)NC(=O)C(F)(F)c3ccc(F)cc3)cc2)NC(=O)CC2(CCCC2)CC(=O)NCCCCCNC1=O [Compound 560],< 100
6,C[C@H]1NC(=O)[C@@H](Cc2ccc(NC(=O)[C@H](Cc3ccccc3C(F)(F)F)NC(=O)C3(c4ccc(F)cc4)CC3)cc2)NC(=O)CC2(CCCC2)CC(=O)N(C)CCCCCNC1=O [Compound 507],< 100
7,O=C1CC2(CCCC2)CC(=O)N[C@H](Cc2ccc(NC(=O)[C@H](Cc3ccccc3Cl)NC(=O)Cc3ccc(F)cc3)cc2)C(=O)N[C@H](CC2CCCCC2)C(=O)NCCCCCN1 [Compound 499],< 100
8,C[C@H]1NC(=O)[C@@H](Cc2ccc(NC(=O)[C@H](Cc3ccccc3Cl)NC(=O)Cc3ccc(N(C)C)cc3)cc2)NC(=O)CC2(CCCC2)CC(=O)N(C)CCOCCN(C)C1=O [Compound 584],< 100
9,O=C1CNC(=O)[C@@H](Cc2ccc(NC(=O)[C@H](Cc3ccc(F)cc3Cl)NC(=O)Cc3ccc(F)cc3)cc2)NC(=O)CC2(CCCC2)CC(=O)NCCCCCN1 [Compound 388],< 100
10,C[C@H]1NC(=O)[C@@H](Cc2ccc(NC(=O)[C@H](Cc3ccccc3Cl)NC(=O)Cc3ccc(F)cc3)cc2)NC(=O)CC2(CCCC2)CC(=O)N(C)CCCCCN(C)C1=O [Compound 488],< 100
11,C[C@H]1NC(=O)[C@@H](Cc2ccc(NC(=O)[C@H](Cc3ccccc3Cl)NC(=O)Cc3ccc(F)cc3)cc2)NC(=O)CC2(CCC2)CC(=O)NCCCCCNC1=O [Compound 535],< 100
12,C[C@H]1NC(=O)[C@@H](Cc2ccc(NC(=O)[C@H](Cc3ccccc3Cl)NC(=O)Cc3ccccc3)cc2)NC(=O)CC2(CCCC2)CC(=O)NCCNCCNC1=O [Compound 443],< 100
13,C[C@H]1NC(=O)[C@@H](Cc2ccc(NC(=O)[C@H](Cc3ccccc3Cl)NC(=O)Cc3ccc(F)cc3)cc2)NC(=O)CC2(CCCC2)CC(=O)N(C)CCN(C)CCN(C)C1=O [Compound 539],< 100
14,NC(=O)C[C@H]1NC(=O)[C@@H](Cc2ccc(NC(=O)[C@H](Cc3ccccc3Cl)NC(=O)Cc3ccc(CO)cc3)cc2)NC(=O)CC2(CCCC2)CC(=O)N[C@H](C(=O)O)CCCCNC1=O [Compound 656],< 100
15,C[C@H]1NC(=O)[C@@H](Cc2ccc(NC(=O)[C@H](Cc3ccccc3Cl)NC(=O)C(F)(F)c3ccccc3)cc2)NC(=O)CC2(CCCC2)CC(=O)N(C)CCN(C)CCN(C)C1=O [Compound 540],< 100
16,O=C1CC2(CCCC2)CC(=O)N[C@H](Cc2ccc(NC(=O)[C@@H](NC(=O)Cc3ccc(F)cc3)C3CCCCC3)cc2)C(=O)NCCOCCOCCN1 [Compound 424],< 100
17,C[C@H]1NC(=O)[C@@H](Cc2ccc(NC(=O)[C@H](Cc3ccccc3Cl)NC(=O)C(F)(F)c3ccccc3)cc2)NC(=O)CC2(CCCC2)CC(=O)N(C)CCOCCN(C)C1=O [Compound 567],< 100
18,C[C@H]1NC(=O)[C@@H](Cc2ccc(NC(=O)[C@H](Cc3ccccc3Cl)NC(=O)C(F)(F)c3ccccc3)cc2)NC(=O)CC2(CCC2)CC(=O)NCCCCCNC1=O [Compound 536],< 100

# Tested on: IL-17A induced secretion of IL-6 in primary human RASF cells
# Experiment: Inhibition of IL17A induced secretion of IL6 in human rheumatoid arthritis synovial fibroblast (RASF) cells
# Assay type: cell-based
# Settings: Homo sapiens, Fibroblast
# Protocol: This assay was used to determine the extent of inhibition of IL-17A induced secretion of IL-6 in primary human rheumatoid synovial fibroblast (RASF) cells by compounds of the invention. IL-17A is known to stimulate IL-6 production in RASF cells.
# Low passage (passage 2-8) Primary human RASF cells (Asterand) were maintained in maintenance medium. Cells were detached from flasks by tryptic digestion and the cell density of the suspension determined. To each well of a 96 well culture plate was added 100 μL of seeding medium containing 50,000 cells/mL and the plate incubated overnight in a humidified 37° C., 5% CO2 incubator. The medium was replaced with fresh assay medium and cells were incubated for additional 5 hours in a humidified 37° C., 5% CO2 incubator prior to stimulation with recombinant human IL-17A (“rhIL-17A”). Prior to addition to cells, rhIL-17A (30 ng/mL) in assay medium was incubated with either DMSO alone, compounds, or anti-IL17 receptor antibody (3 μg/mL) for 1 hour at 37° C. The final concentration of DMSO in all samples was 0.25%. The final concentration of compounds varied from 0.03 μM to 25 μM.
# Immediately before stimulation, cells were washed once with fresh assay medium. Then, 100 μL of the test samples was added in triplicate wells and the plates incubated for 20 hours in a humidified 37° C., 5% CO2 incubator. The assay medium from each well was collected and the IL-6 concentration in cell culture supernatants was determined by ELISA either immediately or after storage at −20° C.
# A water-soluble tetrazolium salt (WST1) viability assay was immediately performed on the cells after the conditioned medium was collected using a WST1 reagent purchased from Roche. The concentration of IL-6 obtained from ELISA was normalized by the WST1 data.
row,SMILES,IC50 [nM]
1,C[C@H]1NC(=O)[C@@H](Cc2ccc(NC(=O)[C@H](Cc3ccccc3Cl)NC(=O)C(F)(F)c3ccccc3)cc2)NC(=O)CC2(CCCC2)CC(=O)NCCCCCNC1=O [Compound 434],100 to 1000
2,C[C@H]1NC(=O)[C@@H](Cc2ccc(NC(=O)[C@H](Cc3ccccc3Cl)NC(=O)Cc3ccc(F)cc3)cc2)NC(=O)CC2(CCCC2)CC(=O)N[C@H](C(=O)O)CCCCNC1=O [Compound 529],< 100
3,O=C1CC2(CCCC2)CC(=O)N[C@H](Cc2ccc(NC(=O)[C@H](Cc3ccccc3Cl)NC(=O)OCc3ccccc3)cc2)C(=O)NCCOCCOCCN1 [Compound 484],100 to 1000
4,O=C1CC2(CCCC2)CC(=O)N[C@H](Cc2ccc(NC(=O)[C@H](Cc3ccccc3Cl)NC(=O)Cc3ccc(OCCN4CCOCC4)cc3)cc2)C(=O)N[C@H](Cc2ccccc2)C(=O)NCCCCCN1 [Compound 439],100 to 1000
5,C[C@H]1NC(=O)[C@@H](Cc2ccc(NC(=O)[C@H](Cc3ccccc3Cl)NC(=O)C(F)(F)c3ccc(F)cc3)cc2)NC(=O)CC2(CCCC2)CC(=O)NCCCCCNC1=O [Compound 560],< 100
6,C[C@H]1NC(=O)[C@@H](Cc2ccc(NC(=O)[C@H](Cc3ccccc3C(F)(F)F)NC(=O)C3(c4ccc(F)cc4)CC3)cc2)NC(=O)CC2(CCCC2)CC(=O)N(C)CCCCCNC1=O [Compound 507],1000 to 10000
7,O=C1CC2(CCCC2)CC(=O)N[C@H](Cc2ccc(NC(=O)[C@H](Cc3ccccc3Cl)NC(=O)Cc3ccc(F)cc3)cc2)C(=O)N[C@H](CC2CCCCC2)C(=O)NCCCCCN1 [Compound 499],100 to 1000
8,C[C@H]1NC(=O)[C@@H](Cc2ccc(NC(=O)[C@H](Cc3ccccc3Cl)NC(=O)Cc3ccc(N(C)C)cc3)cc2)NC(=O)CC2(CCCC2)CC(=O)N(C)CCOCCN(C)C1=O [Compound 584],1000 to 10000
9,O=C1CNC(=O)[C@@H](Cc2ccc(NC(=O)[C@H](Cc3ccc(F)cc3Cl)NC(=O)Cc3ccc(F)cc3)cc2)NC(=O)CC2(CCCC2)CC(=O)NCCCCCN1 [Compound 388],< 100
10,C[C@H]1NC(=O)[C@@H](Cc2ccc(NC(=O)[C@H](Cc3ccccc3Cl)NC(=O)Cc3ccc(F)cc3)cc2)NC(=O)CC2(CCCC2)CC(=O)N(C)CCCCCN(C)C1=O [Compound 488],1000 to 10000
11,C[C@H]1NC(=O)[C@@H](Cc2ccc(NC(=O)[C@H](Cc3ccccc3Cl)NC(=O)Cc3ccc(F)cc3)cc2)NC(=O)CC2(CCC2)CC(=O)NCCCCCNC1=O [Compound 535],1000 to 10000
12,C[C@H]1NC(=O)[C@@H](Cc2ccc(NC(=O)[C@H](Cc3ccccc3Cl)NC(=O)Cc3ccccc3)cc2)NC(=O)CC2(CCCC2)CC(=O)NCCNCCNC1=O [Compound 443],100 to 1000
13,C[C@H]1NC(=O)[C@@H](Cc2ccc(NC(=O)[C@H](Cc3ccccc3Cl)NC(=O)Cc3ccc(F)cc3)cc2)NC(=O)CC2(CCCC2)CC(=O)N(C)CCN(C)CCN(C)C1=O [Compound 539],1000 to 10000
14,NC(=O)C[C@H]1NC(=O)[C@@H](Cc2ccc(NC(=O)[C@H](Cc3ccccc3Cl)NC(=O)Cc3ccc(CO)cc3)cc2)NC(=O)CC2(CCCC2)CC(=O)N[C@H](C(=O)O)CCCCNC1=O [Compound 656],< 100
15,C[C@H]1NC(=O)[C@@H](Cc2ccc(NC(=O)[C@H](Cc3ccccc3Cl)NC(=O)C(F)(F)c3ccccc3)cc2)NC(=O)CC2(CCCC2)CC(=O)N(C)CCN(C)CCN(C)C1=O [Compound 540],1000 to 10000
16,O=C1CC2(CCCC2)CC(=O)N[C@H](Cc2ccc(NC(=O)[C@@H](NC(=O)Cc3ccc(F)cc3)C3CCCCC3)cc2)C(=O)NCCOCCOCCN1 [Compound 424],> 10000
17,C[C@H]1NC(=O)[C@@H](Cc2ccc(NC(=O)[C@H](Cc3ccccc3Cl)NC(=O)C(F)(F)c3ccccc3)cc2)NC(=O)CC2(CCCC2)CC(=O)N(C)CCOCCN(C)C1=O [Compound 567],100 to 1000
18,C[C@H]1NC(=O)[C@@H](Cc2ccc(NC(=O)[C@H](Cc3ccccc3Cl)NC(=O)C(F)(F)c3ccccc3)cc2)NC(=O)CC2(CCC2)CC(=O)NCCCCCNC1=O [Compound 536],100 to 1000
